Results published in article PMC10959927, “Platinum iodido drugs show potential anti-tumor activity, affecting cancer cell metabolism and inducing ROS and senescence in gastrointestinal cancer cells” (Communications Biology, 2024).
Where “and” joins values, the source holds several entries; their conditions need not be identical. Equal values may be shown once.

Key:
[1] = system: C57Bl6 mice; assay: In vivo safety: weight and Irwin's test after tail vein injection; set-up: species or system mouse; settings: 1.4 mg/kg tail vein injection, early acute time points
[2] = system: AGS cells; assay: Seahorse XF OCR, ECAR and energy map; format: cell-based, human; settings: AGS, IC50 24 h
Experimental: (§1) Oxygen Consumption Rate (OCR), Extra Cellular Acidification Rate (ECAR) and Energy map measurements. Cells were plated in XF HS Miniplates (Seahorse Bioscience) at a cellular density of 1 × 10^4 cells/well and incubated overnight. […] After an OCR baseline measurement, the minimum oxygen consumption was determined by adding 1.5 µM oligomycin (O) and the maximal respiration rate was assessed by adding 1 µM carbonyl cyanide p-trifluoro methoxyphenylhydrazone (FCCP, F). At the end of the experiment, the non-mitochondrial oxygen consumption was evaluated by adding both 0.5 µM rotenone (R) and antimycin (A). Experiments were run in a XF HS Mini analyzer (Seahorse Agilent), and raw data were normalized to total protein using a BCA protein assay kit (Cat. no. 23225, Thermo Scientific).

[3] = system: PANC1 cells; assay: ATP determination assay (bioluminescence); format: cell-based, human; settings: replicates
Experimental: (§2) ATP determination assay. […] The analysis was performed using the ATP Bioluminescense Assay Kit CLS II (Cat. no. 11699695001, Roche) according to the manufacturer’s instructions. […] Data were normalized to total protein using the BCA protein assay kit (Thermo Scientific).

[4] = system: AGS cells; assay: ATP determination assay (bioluminescence); format: cell-based, human; settings: replicates
Experimental: as §2

[5] = system: MKN45 cells; assay: ATP determination assay (bioluminescence); format: cell-based, human; settings: replicates
Experimental: as §2

[6] = system: PANC1 cells; assay: Seahorse XF OCR, ECAR and energy map; format: cell-based, human; set-up: Basal resp. / Maximal resp. / SRC: unit not given here; settings: PANC1, IC50 24 h
Experimental: as §1

[7] = system: MKN45 cells; assay: Seahorse XF OCR, ECAR and energy map; format: cell-based, human; set-up: Basal resp. / Maximal resp. / SRC: unit not given here; settings: MKN45, IC50 24 h
Experimental: as §1

[8] = system: PANC1 cells; assay: ROS detection by confocal microscopy (DHE, MitoSox); format: cell-based, human; settings: PANC1, 1 h treatment; H2O2 200 µM, CDDP 10 µM, I5 20 µM, I6 20 µM
Experimental: Tumor cells were seeded at a density of 3 × 10^5 cells in 15 µm 8-well IBIDI plates and incubated overnight. […] Subsequently, cells were stained with 10 μM of dihydroethidium (DHE, cytosolic O2^·- probe, Sigma-Aldrich) or with 5 μM of Mitosox (mitochondrial O2^·- probe, Sigma-Aldrich) for 15–30 min[79] and then visualized on a confocal microscope (Confocal LSM 710 Zeiss, Biomedical Research Institute Alberto Sols, IIBm-CSIC-UAM, Madrid, Spain). The image analysis was realized using the software program Image J.

With `CC(C)[NH][Pt@SP3]([I])([I])[NH]C(C)C` [I5, trans-[PtI2(isopropylamine)2]] the “adverse effects on weight and neurological perturbations (Irwin's test)” value [1] was “no adverse effects”, the “effect on ECAR” value [2] was “strong effect” and the OCR ([2]; time 21.13 min (I5) / 21.08 min (I6)) was 33.7993 pmoles/min/µg protein and 17.1923 pmoles/min/µg protein and 31.197 pmoles/min/µg protein. For the same compound, the OCR ([2]; time 60.15 min (I5) / 60.16 min (I6)) was 22.0275 pmoles/min/µg protein and 13.2859 pmoles/min/µg protein and 22.5877 pmoles/min/µg protein, the OCR ([2]; time 66.63 min (I5) / 66.65 min (I6)) was 21.2372 pmoles/min/µg protein and 12.4063 pmoles/min/µg protein and 20.3044 pmoles/min/µg protein and the OCR ([2]; time 73.12 min (I5) / 73.14 min (I6)) was 19.5577 pmoles/min/µg protein and 11.425 pmoles/min/µg protein and 19.4877 pmoles/min/µg protein. The ATP assay [3] was 7640.3 nmoles ATP/mg prot and 496.05 nmoles ATP/mg prot and 2595.09 nmoles ATP/mg prot and 2106 nmoles ATP/mg prot and 8408.46 nmoles ATP/mg prot and 9059.04 nmoles ATP/mg prot and 9127 nmoles ATP/mg prot and 10292.6 nmoles ATP/mg prot and 9600 nmoles ATP/mg prot, the ATP assay [4] was 8571 nmoles ATP/mg prot and 150.2 nmoles ATP/mg prot and 0.01 nmoles ATP/mg prot and 0.05 nmoles ATP/mg prot and 4895.31 nmoles ATP/mg prot and 5882.71 nmoles ATP/mg prot and 4424 nmoles ATP/mg prot and 7769.74 nmoles ATP/mg prot and 709.57 nmoles ATP/mg prot and the ATP assay [5] was 11672 nmoles ATP/mg prot and 496.26 nmoles ATP/mg prot and 8257.16 nmoles ATP/mg prot and 8443 nmoles ATP/mg prot and 9557.85 nmoles ATP/mg prot and 7684.95 nmoles ATP/mg prot and 11572 nmoles ATP/mg prot and 11682.5 nmoles ATP/mg prot and 9034.25 nmoles ATP/mg prot. The Basal resp. [6] was 4.37 and 2.91 and 2.68, the “effect on ECAR” value [6] was “strong effect” and the OCR ([6]; time 14.5 min (I5) / 14.5 min (I6)) was 10.9576 pmoles/min/µg protein and 5.698 pmoles/min/µg protein and 5.804 pmoles/min/µg protein. For the same compound, the OCR ([6]; time 21.08 min (I5) / 21.07 min (I6)) was 8.99 pmoles/min/µg protein and 4.967 pmoles/min/µg protein and 6.036 pmoles/min/µg protein, the OCR ([6]; time 60.22 min (I5) / 60.14 min (I6)) was 6.526 pmoles/min/µg protein and 3.324 pmoles/min/µg protein and 3.875 pmoles/min/µg protein and the Basal resp. [7] was 41.12 and 25.16 and 29.99. The Maximal resp. [7] was 70.47 and 41.2 and 48.53, the SRC [7] was 29.35 and 16.04 and 18.54 and the “effect on ECAR” value [7] was “strong effect”. For the same compound, the OCR ([7]; time 1.53 min (I5) / 1.53 min (I6)) was 87.0221 pmoles/min/µg protein and 65.8202 pmoles/min/µg protein and 67.2404 pmoles/min/µg protein, the OCR ([7]; time 8.04 min (I5) / 8.03 min (I6)) was 81.395 pmoles/min/µg protein and 60.0787 pmoles/min/µg protein and 61.987 pmoles/min/µg protein and the OCR ([7]; time 14.51 min (I5) / 14.5 min (I6)) was 68.3352 pmoles/min/µg protein and 45.5888 pmoles/min/µg protein and 48.6636 pmoles/min/µg protein. For the same compound, the OCR ([7]; time 40.66 min (I5) / 40.62 min (I6)) was 96.0748 pmoles/min/µg protein and 62.8442 pmoles/min/µg protein and 67.0243 pmoles/min/µg protein, the OCR ([7]; time 53.68 min (I5) / 53.58 min (I6)) was 97.9086 pmoles/min/µg protein and 60.6467 pmoles/min/µg protein and 66.2231 pmoles/min/µg protein and the OCR ([7]; time 60.27 min (I5) / 60.14 min (I6)) was 32.7644 pmoles/min/µg protein and 24.8353 pmoles/min/µg protein and 23.7602 pmoles/min/µg protein. The OCR ([7]; time 66.75 min (I5) / 66.62 min (I6)) was 29.7633 pmoles/min/µg protein and 21.9547 pmoles/min/µg protein and 20.2025 pmoles/min/µg protein, the OCR ([7]; time 73.23 min (I5) / 73.1 min (I6)) was 27.2124 pmoles/min/µg protein and 20.4304 pmoles/min/µg protein and 18.6726 pmoles/min/µg protein and the “DHE fluorescence intensity (per cell), cytosolic O2•−” value [8] was 90.3731 and 85.3678 and 75.6942 and 74.4248 and 73.3485 and 72.8941.
